In ChEMBL document CHEMBL3352147, “Synthesis and structure-activity relationship of 4-azaheterocycle benzenesulfonamide derivatives as new microtubule-targeting agents” (Bioorg Med Chem Lett, 2014) one finds IC50 and inhibition data, which are given here for 21 molecules.

Each structure is given as a SMILES string. Calls of active or inactive are those of the source. The calls are words filed in the database; no cut-off is given here. Where only a bound is given, the exact number is not on record here.

One data set relates to HepG2. Briefly: Antiproliferative activity against human HepG2 cells assessed as inhibition of cell proliferation by MTT assay. Format: functional, cell-based. (Tetrazolium dyes change colour on reduction, which living cells bring about.)
Data set [1] in a line: Antiproliferative activity against human SKOV3 cells assessed as inhibition of cell proliferation by MTT assay. Format: functional, cell-based. As to conditions: SK-OV-3.
Data set [2] can be described thus: Antiproliferative activity against human HCT116 cells assessed as inhibition of cell proliferation by MTT assay. Format: functional, cell-based. As to conditions: HCT-116.
A further data set concerns Jurkat. Briefly: Antiproliferative activity against human Jurkat cells assessed as inhibition of cell proliferation at 10 uM by MTT assay. The data set is classed as functional.
Data set [3] can be described thus: Antiproliferative activity against human BGC823 cells assessed as inhibition of cell proliferation at 10 uM by MTT assay. The data set is classed as functional. As to conditions: BGC-823.
The next data set relates to A549. Nature of the data set: Antiproliferative activity against human A549 cells assessed as inhibition of cell proliferation at 10 uM by MTT assay. The data set is classed as functional.
The nature of data set [4]: Antiproliferative activity against HEK293T cells assessed as inhibition of cell proliferation at 10 uM by MTT assay. The following applies: human. The data set is classed as cell-based, HEK-293T.
Data set [5] has as its target T1, Tubulin alpha (Homo sapiens) (UniProt P0DPH7+P68366+Q71U36+P68363+Q9BQE3+Q6PEY2+A6NHL2+Q9NY65). Briefly: Inhibition of tubulin alpha in human LoVo cells assessed as effect on tubulin intensity level at 20 nM. The data set is classed as cell-based.
Data set [6] has as its target T1, Tubulin alpha (Homo sapiens). Nature of the data set: Inhibition of tubulin alpha in human LoVo cells assessed as effect on microtubule spindles at 20 nM after 24 hrs. The data set is classed as cell-based.
Data set [7] has the same target. Nature of the data set: Inhibition of tubulin alpha in human LoVo cells assessed as effect on tubulin intensity level at 100 nM. Format: cell-based.
Data set [8] can be described thus: Antiproliferative activity against human PC3 cells assessed as inhibition of cell proliferation by MTT assay. The data set is classed as functional, cell-based. As to conditions: PC-3.
The target of data set [9] is T1, Tubulin alpha (Homo sapiens). Nature of the data set: Inhibition of tubulin alpha in human LoVo cells assessed as effect on microtubule spindles at 100 nM after 24 hrs. Format: cell-based.

On to `O=S(=O)(c1ccc(-c2cnc(C3CC3)o2)cc1F)N1CCc2ccccc21`, for which the IC50 with HepG2 stood at 18700 nM; in data set [1] it was 139 nM; in data set [2] it was 168 nM.
Take `O=S(=O)(c1ccc(-c2nnc(C3CC3)o2)cc1)N1CCc2ccccc21`: the inhibition at 10 µM is 31.7% in the data set on Jurkat, 27.7% in data set [3], 63.7% in the data set with A549 and -13.8% in [4].
In the case of `O=S(=O)(c1ccc(-c2cnc(C3CC3)o2)cc1)n1ccc2ccccc21`, the inhibition at 10 µM in the data set with Jurkat was determined as 13.9%; in data set [3] it was 37.9%; in the data set on A549, 77.6%; in data set [4], 10.9%.
On to `O=S(=O)(c1ccc(-c2cnc(C3CC3)o2)cc1)N1CCc2ccccc21`, for which the inhibition entry in data set [5], in [6], in [7] and in data set [9] was “Active” throughout. For the same molecule, the concentration for half-maximal inhibition (IC50) with HepG2 is 58 nM; in [1] it was 55 nM; in data set [2], 105 nM; in [8], 62 nM.
As for `O=S(=O)(c1ccc(-c2cnc(C3CC3)s2)cc1)N1CCc2ccccc21`, the inhibition at 10 µM with Jurkat is 29.8%; in data set [3], 38.5%; with A549 it was -10.1%; in [4] it was -15.4%.
`O=S(=O)(c1ccc(-c2cnc(C3CC3)o2)cc1)N1CCCCC1`: the IC50 (in the data set on HepG2; in [1]; in data set [2]; in data set [8]) was over 100000 nM in each case.
With `N#Cc1ccc2c(c1)CCN2S(=O)(=O)c1ccc(-c2cnc(C3CC3)o2)cc1`, the inhibition at 10 µM in the data set on Jurkat amounted to 15.8%; in data set [3], 29.6%; with A549, 28.4%; in [4], 37.4%.
`C=Cc1ncc(-c2ccc(S(=O)(=O)N3CCc4ccccc43)cc2)o1`: the 50% inhibitory concentration (IC50) was 25800 nM in the data set with HepG2, 1130 nM in data set [1] and 1330 nM in [2].
As for `O=S(=O)(c1ccc(-c2cnc(C3CC3)o2)cc1)N1CCc2cc(F)ccc21`, the inhibition at 10 µM in the data set on Jurkat is 24.3%; in data set [3], 18.3%; in the data set on A549, 36.1%; in data set [4], 25.7%.
`O=c1[nH]n(S(=O)(=O)c2ccc(-c3cnc(C4CC4)o3)cc2)c2ccccc12`: the half-maximal inhibitory concentration (IC50) with HepG2 was determined as 1010 nM; in data set [1], 474 nM; in data set [2], 812 nM; in data set [8] it was 1460 nM. Further, the inhibition at 10 µM was determined as 94.7% in the data set on Jurkat, 83.7% in data set [3], 66.5% with A549 and 80.9% in data set [4].
On to `O=[N+]([O-])c1ccc2c(c1)N(S(=O)(=O)c1ccc(-c3cnc(C4CC4)o3)cc1)CC2`, for which the half-inhibitory concentration (IC50) worked out at 273 nM in the data set with HepG2, 114 nM in data set [1], 181 nM in [2] and 14 nM in data set [8]. Moreover, the inhibition at 10 µM was 96.7% in the data set with Jurkat, 97.7% in data set [3], 50.3% in the data set on A549 and 77.8% in data set [4].
On to `O=S(=O)(c1ccc(-c2cnc(C3CC3)o2)cc1)N1CC2(CCCCC2)c2ccccc21`, for which the IC50 was determined as 13600 nM in the data set on HepG2, 5200 nM in data set [1], 6130 nM in data set [2] and 6580 nM in data set [8]. Further, the inhibition at 10 µM in the data set with Jurkat was determined as 94.8%; in [3], 84.1%; in the data set with A549, 58.4%; in data set [4], 76%.
In the case of `O=S(=O)(c1ccc(-c2cnc(C3CC3)o2)cc1Cl)N1CCc2ccccc21`, the results for the half-maximal inhibitory concentration (IC50) (in the data set on HepG2; in data set [1]; in [2]) were 2180 nM, 220 nM and 422 nM, respectively.
Turning to `CCc1ncc(-c2ccc(S(=O)(=O)N3CCc4ccccc43)cc2)o1`, the values for the IC50 (in the data set with HepG2; in data set [1]; in data set [2]) were over 100000 nM, 154 nM and 309 nM, respectively.
As to `COc1ccc2c(c1)CCN2S(=O)(=O)c1ccc(-c2cnc(C3CC3)o2)cc1`, the inhibition entry in data set [5], in data set [6], in data set [7] and in [9] was “Active” in each case. The 50% inhibitory concentration (IC50) was determined as 55 nM in the data set on HepG2, 39 nM in data set [1], 112 nM in [2] and 82 nM in data set [8].
In the case of `O=S(=O)(c1ccc(-c2cnc(C3CC3)o2)cc1)N1CCc2ccc(Cl)cc21`, the IC50 in the data set with HepG2 was determined as 248 nM; in data set [1] it was 144 nM; in [2] it was 255 nM; in data set [8], 138 nM. The inhibition at 10 µM worked out at 95.5% in the data set on Jurkat, 87.4% in data set [3], 63.6% with A549 and 71.9% in data set [4].
Take `Cc1ccc2c(c1)CCN2S(=O)(=O)c1ccc(-c2cnc(C3CC3)o2)cc1`: the IC50 was 295 nM in the data set with HepG2, 201 nM in [1], 233 nM in data set [2] and 189 nM in [8]. In addition, the inhibition at 10 µM with Jurkat turned out to be 91.1%; in data set [3] it was 79.1%; with A549 it was 63.4%; in data set [4], 74.7%.
`O=[N+]([O-])c1ccc2c(c1)CCN2S(=O)(=O)c1ccc(-c2cnc(C3CC3)o2)cc1`: the concentration for half-maximal inhibition (IC50) with HepG2 stood at 1650 nM; in data set [1] it was 1300 nM; in [2] it was 1190 nM; in [8], 1920 nM. The inhibition at 10 µM with Jurkat worked out at 92.4%; in data set [3] it was 87.5%; in the data set with A549 it was 73.1%; in [4], 48.4%.
Regarding `CS(=O)(=O)c1ccc2c(c1)CCN2S(=O)(=O)c1ccc(-c2cnc(C3CC3)o2)cc1`, the inhibition at 10 µM worked out at 13% in the data set on Jurkat, 28.3% in data set [3], 4.14% with A549 and 6.54% in data set [4].
In the case of `O=S(=O)(c1ccc(-c2cnc(C3CC3)o2)cc1)N1CCCc2ccccc21`, the inhibition result in [5], in [6], in data set [7] and in [9] was “Active” in each case.
For the molecule `CC1Cc2ccccc2N1S(=O)(=O)c1ccc(-c2cnc(C3CC3)o2)cc1` (stereo unspecified), the IC50 in the data set with HepG2 was found to be 16800 nM; in [1], 12400 nM; in data set [2], 14400 nM; in [8], 20500 nM. For the same molecule, the inhibition at 10 µM with Jurkat stood at 89.9%; in data set [3] it was 81.8%; in the data set with A549, 52.4%; in data set [4], 61.3%.

For orientation: IC50 means the concentration that inhibits the measured activity by half. The term inhibition denotes the change of the read-out against control, counted positive when it falls.
